Data from patent US20140273006A1, “METHOD OF THERAPY SELECTION FOR PATIENTS WITH CANCER” (NESTEC S.A., priority 2011, published 2014).
Blank lines part the entries; values can stand above or below the compound they belong to.

Experiments:
H1975 cells = assay: CEER pathway profiling of H1975 cells after PI3K inhibitor, MEK inhibitor or combination treatment; type: cell-based, human; conditions: for levels of activated PI3K: H1975 cells treated with either PI3K inhibitor, MEK inhibitor, or combinations; for levels of other activated proteins (p-MEK, p-ERK, p-AKT, p-PRAS40, p-70S6K, and p-RPS6): H1975 cells, in response to treatment
Protocol: (§1) In one particular embodiment, the proximity assay (e.g., CEER) for detecting the activation level or status of an analyte of interest comprises: • (i) incubating the cellular extract with one or a plurality of dilution series of capture antibodies to form a plurality of captured analytes; • (ii) incubating the plurality of captured analytes with detection antibodies comprising one or a plurality of activation state-independent antibodies and one or a plurality of activation state-dependent antibodies specific for the corresponding analytes to form a plurality of detectable captured analytes, • wherein the activation state-independent antibodies are labeled with a facilitating moiety, the activation state-dependent antibodies are labeled with a first member of a signal amplification pair, and the facilitating moiety generates an oxidizing agent which channels to and reacts with the first member of the signal amplification pair; • (iii) incubating the plurality of detectable captured analytes with a second member of the signal amplification pair to generate an amplified signal; and • (iv) detecting the amplified signal generated from the first and second members of the signal amplification pair.
The levels of other downstream signaling components of the pathway were measured, including HER1, HER2, cMET, PI3K, AKT, ERK, PTEN, MEK, p70S6K, PRAS40, RPS6 and PDK. Cell lines derived from non-small cell lung cancer such as NCI-H460, NCI-H647, NCI-H1155, NCI-1299, NCI-1975, NCI-H2228, and NCI-H661 were also used. The different therapies tested included a PI3K inhibitor alone at low or high dose, a MEK inhibitor alone at low or high dose, and a PI3K inhibitor plus a MEK inhibitor together at low dose or high dose. The cells were assayed at either 4 hours after treatment or 24 hours (see, * in FIGS. 6-10) after treatment.

cell line H460 = assay: CEER pathway profiling of cell line H460 after PI3K inhibitor, MEK inhibitor or combination treatment; type: cell-based, human; conditions: PI3K inhibitor alone or in combination with a MEK inhibitor, day 8, 9, 12, 13, 4 hours or 24 hours of drug exposure
Protocol: as §1
The levels of other downstream signaling components of the pathway were measured, including HER1, HER2, cMET, PI3K, AKT, ERK, PTEN, MEK, p70S6K, PRAS40, RPS6 and PDK. […]

PI3K-related pathways = assay: CEER-based analysis of BCA clinical samples from patients treated with BYL719; type: in vivo, human
Protocol: CEER analysis includes normalizing the measured expression/activation levels of signaling transduction analytes against standard controls using statistical algorithms. In particular, Relative Fluorescence Unit (RFU) values are converted to Computed Units (CU), a standard functional unit of measure based on cell line controls with known levels of analyte expression. For each slide of the CEER assay, a standard curve of serial diluted cell lysate is prepared for a particular analyte-positive cell line (e.g., HER1-positive cell line is MDA-MB-468; HER2-positive cell line is SKBr3). Thus, normalized levels of each particular analyte and the degree of phosphorylation in each sample can be obtained against standard cell lines.
This example illustrates a CEER-based analysis of BCA clinical samples from patients treated with a PI3K inhibitor, BYL719 (Novartis). In particular, signaling pathway profiles from individual patients are shown to shift during the course of BYL719 treatment. Therefore, CEER-based analysis of PI3K-related pathways allows for responsive, individualized management of BYL719 treatment to improve clinical outcomes. Oncogenic receptor tyrosine kinases (HER1, HER2, HER3, cMET, IGF-1R, and cKIT) were quantified, as well as PI3K and other tyrosine kinase signaling cascade components including SHC, AKT, ERK, MEK, RSK, pRAS 40, RPS6, P70S6K, and PTEN. Levels of total protein and activated protein were measured.

PI3K = assay: CEER profile of FNA sample of Patient #3 after PI3K inhibitor treatment; type: in vivo, human; conditions: Patient #3, FNA sample after treatment; confirmed by CT scan
Protocol: In a retrospective study, a series of samples taken from patients with cancer were evaluated to determine if pathway profiling using the CEER assay is predictive of responsiveness to PI3K treatment. Samples analyzed included those from patients on a therapy time course, e.g., prior to receiving therapy, after initiating therapy, and during the course of therapy.
Following treatment with the PI3K inhibitor drug BAY806946, another sample was taken and analyzed. […] This finding was confirmed by CT scan.

[1] = tested on: cell lines with inactive PTEN; assay: IC50 of the PI3K inhibitor in cell lines by PTEN status (FIG. 14); type: cell-based, human; conditions: cell lines with inactive PTEN (point mutation or null mutation)
Protocol: (§2) The relationship between the IC50 of the PI3K inhibitor drug (GDC0941) and activated PI3K levels was analyzed in several cell lines. It was determined that cell lines (e.g., H1651 or H2087) with PI3K activation have low IC50. H1651 cells carry no known genetic mutations but have high EGFR expression. H2087 has NRAS and BRAF mutations. Cell lines (e.g., Calu-6) with two more alterations such as multiple mutations (e.g., MAPK mutations) and PI3K activation had high IC50 values. Thus, phospho-PI3K can be an indicator or predictor of sensitivity to PI3K inhibitors.

H2087 = assay: IC50 of the PI3K inhibitor drug (GDC0941) versus activated PI3K levels, H2087; type: cell-based, human; conditions: H2087, cell line with PI3K activation
Text: (§3) FIG. 13 illustrates that the CEER assay can be used to calculate the IC50 of an anti-cancer drug relative to the level of activated PI3K and other downstream components of the HER1/HER2/cMET pathway. […] In some cancer cells inhibition of PI3K activation corresponds to inhibition of activation of downstream proteins. In addition the extent of the inhibition is specific to the cell line and the inhibitor treatment.
as §2

Calu-6 = assay: IC50 of the PI3K inhibitor drug (GDC0941) versus activated PI3K levels, Calu-6; type: cell-based, human; conditions: Calu-6, two more alterations (multiple mutations and PI3K activation)
Text: as §3, §2

H1651 = assay: IC50 of the PI3K inhibitor drug (GDC0941) versus activated PI3K levels, H1651; type: cell-based, human; conditions: H1651, cell line with PI3K activation
Text: as §3, §2

[2] = tested on: Stage III triple negative breast cancer; assay: Clinical response of patients with triple negative breast cancer to combination therapy; type: in vivo, human; conditions: Patient #4; combination therapy of Herceptin and Lapatinib
Text: Patient #4 represents a patient diagnosed with Stage III triple negative breast cancer (e.g., ER-, PR-, HER2-). The patient underwent radical mastectomy.
Patient #5 represents a patient diagnosed with Stage III triple negative breast cancer (e.g., ER-, PR-, HER2-). The patient underwent radical mastectomy.

[3] = tested on: PI3K, HER2 and IGF1R activation; assay: CEER pathway profile of Patient #5 samples before and after treatment; type: in vivo, human; conditions: Patient #5, after treatment vs baseline
Text: The samples were cerebrospinal fluid (CSF), fine needle aspirate (FNA) and a biopsy.

SMILES: COc1cc(F)c(F)c(Nc2ccc(I)cc2F)c1NS(=O)(=O)C1(C[C@H](O)CO)CC1 [BAY869766]
levels of activated PI3K (H1975 cells): relatively similar
levels of other activated proteins (p-MEK, p-ERK, p-AKT, p-PRAS40, p-70S6K, and p-RPS6) (H1975 cells): greatly lower

SMILES: COc1c(OCCCN2CCOCC2)ccc2c1N=C(NC(=O)c1cnc(N)nc1)N1CCN=C21.Cl.Cl [BAY841236]
levels of activated PI3K (H1975 cells): relatively similar
levels of other activated proteins (p-MEK, p-ERK, p-AKT, p-PRAS40, p-70S6K, and p-RPS6) (H1975 cells): greatly lower
activated proteins of the HER1/HER2/cMET pathway (p-PI3K, p-AKT, p-PRAS40, p-70S6K, and p-RPS6) (cell line H460): downregulated

SMILES: Cc1nc(NC(=O)N2CCC[C@H]2C(N)=O)sc1-c1ccnc(C(C)(C)C(F)(F)F)c1 [BYL719]
level of activated HER3 (PI3K-related pathways; Patient 1, Day 8 of treatment): increased
p-AKT, p-pPRAS, p-P70S6, and p-RPS6 (PI3K-related pathways; Patient 1, Day 8 of treatment): downregulation
total HER3 expression (PI3K-related pathways; Patient 1, Day 8 of treatment): increased
HER3 expression and activation (PI3K-related pathways; Patient 1, Day 28 of treatment): higher than at Day 8
p-AKT, p-PRAS, p-P70S6 and p-RPS6 levels (PI3K-related pathways; Patient 1, Day 28 of treatment): higher than at Day 8
activation of PRAS40 (PI3K-related pathways; Patient 1, course of treatment): initial decrease in activation of PRAS40 was observed, followed by an increase
activation of AKT (PI3K-related pathways; Patient 1, upon treatment): decreased
activation of HER3, ERK, MEK, and RSK (PI3K-related pathways; Patient 1, upon treatment): increased
p-AKT and p-PRAS (PI3K-related pathways; Patient 2, Day 8 of treatment): downregulated
p-MEK, p-ERK, and p-RSK (PI3K-related pathways; Patient 2, Day 8 of treatment): upregulated
p-AKT, p-PRAS, p-MEK, p-ERK, and p-RSK (PI3K-related pathways; Patient 2, Day 28): down-regulated
activation of ERK, MEK, and RSK (PI3K-related pathways; Patient 2, course of treatment): initial increase, followed by a decrease
activation of AKT and PRAS40 (PI3K-related pathways; Patient 2, upon treatment): decrease
activated HER1 (PI3K-related pathways; Patient 3, Day 8): upregulated
activated HER2, HER3 and cMET (PI3K-related pathways; Patient 3, Day 8): down-regulated
levels of p-AKT, p-PRAS, p-MEK, p-ERK and p-RSK (PI3K-related pathways; Patient 3, Day 8): downregulated
RTK activation (PI3K-related pathways; Patient 3, upon treatment): general decrease
PRAS40 activation (PI3K-related pathways; Patient 4): decrease
p-AKT, p-PRAS, p-MEK, p-ERK, and p-RSK (PI3K-related pathways; Patient 4, Day 8): downregulation
PRAS40 activation (PI3K-related pathways; Patient 5): decrease
p-MEK, p-ERK and p-RSK levels (PI3K-related pathways; Patient 5, Day 8 of therapy): Little change
P-AKT and p-RAS (PI3K-related pathways; Patient 5, on therapy): slightly upregulated
p-RPS6 (PI3K-related pathways; Patient 5, on therapy): highly upregulated

SMILES: COc1c(OCCCN2CCOCC2)ccc2c1N=C(NC(=O)c1cnc(N)nc1)N1CCN=C21 [BAY806946]
PI3K driven cell proliferation (PI3K): successfully inhibited

IC50 values compared with cell lines with PTEN wild-type status [1]: higher
IC50 (H2087): low
IC50 (Calu-6): high
IC50 (H1651): low
SMILES: CS(=O)(=O)N1CCN(Cc2cc3nc(-c4cccc5[nH]ncc45)nc(N4CCOCC4)c3s2)CC1 [GDC0941]

SMILES: CS(=O)(=O)CCNCc1ccc(-c2ccc3ncnc(Nc4ccc(OCc5cccc(F)c5)c(Cl)c4)c3c2)o1 [Lapatinib, lapatinib]
response to treatment [2]: responded to treatment
PI3K activation as well as HER2 and IGF1R activation [3]: decreased
